Laboratory results published in the NIST ThermoML archive (doi:10.1021/je0400052).
± gives the expanded uncertainty stated by the source.

Assays:
[1] = xn = mol fraction of the nth substance listed; details: 101.3 kPa, Liquid
[2] = refractive index (Na D-line) (dimensionless); xn = mol fraction of the nth substance listed; details: 101.3 kPa, Liquid
[3] = 101.33 kPa, Liquid
[4] = refractive index (Na D-line) (dimensionless); details: 101.33 kPa, Liquid

CCOC(=O)c1ccccc1 [ethyl benzoate] + Cc1cccc(C)c1
Details	mass density, [1] [kg/m3]	refractive index, [2]	viscosity, [1] [mPa·s]
303.15 K, x1 = 0.0887	871.6 ± 3.6	1.4946 ± 0.005	0.612 ± 0.017
303.15 K, x1 = 0.1713	887.2 ± 3.7	1.4957 ± 0.005	0.676 ± 0.018
303.15 K, x1 = 0.2626	905.2 ± 3.7	1.4964 ± 0.005	0.759 ± 0.02
303.15 K, x1 = 0.3553	926 ± 3.8	1.497 ± 0.005	0.837 ± 0.022
303.15 K, x1 = 0.4588	946.8 ± 3.9	1.4974 ± 0.005	0.931 ± 0.024
303.15 K, x1 = 0.5707	966.5 ± 4	1.499 ± 0.005	1.055 ± 0.026
303.15 K, x1 = 0.6576	981.7 ± 4.1	1.4995 ± 0.005	1.161 ± 0.029
303.15 K, x1 = 0.7831	1002.2 ± 4.2	1.5003 ± 0.005	1.352 ± 0.033
303.15 K, x1 = 0.8832	1018.5 ± 4.3	1.5011 ± 0.005	1.5 ± 0.036
313.15 K, x1 = 0.0887	857.3 ± 3.9	1.4917 ± 0.005	0.547 ± 0.015
313.15 K, x1 = 0.1713	875 ± 4	1.4925 ± 0.005	0.601 ± 0.016
313.15 K, x1 = 0.2626	895.5 ± 4	1.4939 ± 0.005	0.664 ± 0.018
313.15 K, x1 = 0.3553	917.5 ± 4.1	1.4955 ± 0.005	0.732 ± 0.019
313.15 K, x1 = 0.4588	937.2 ± 4.2	1.4963 ± 0.005	0.809 ± 0.021
313.15 K, x1 = 0.5707	966.5 ± 4.4	1.4979 ± 0.005	0.91 ± 0.023
313.15 K, x1 = 0.6576	971.7 ± 4.4	1.4984 ± 0.005	0.997 ± 0.025
313.15 K, x1 = 0.7831	993.7 ± 4.5	1.4988 ± 0.005	1.146 ± 0.028
313.15 K, x1 = 0.8832	1009.8 ± 4.6	1.4993 ± 0.005	1.274 ± 0.031

CCc1ccccc1 [ethylbenzene]
Details	mass density, [3] [kg/m3]	refractive index, [4]	viscosity, [3] [mPa·s]
303.15 K	857.6 ± 1.8	1.491 ± 0.0025	0.597 ± 0.016
313.15 K	849.2 ± 2	1.4891 ± 0.0025	0.538 ± 0.015

CCOC(=O)c1ccccc1 [ethyl benzoate] + Cc1ccccc1C
Details	mass density, [1] [kg/m3]	refractive index, [2]	viscosity, [1] [mPa·s]
303.15 K, x1 = 0.0847	887.3 ± 3.6	1.4994 ± 0.005	0.758 ± 0.02
303.15 K, x1 = 0.1749	904.2 ± 3.7	1.4996 ± 0.005	0.837 ± 0.022
303.15 K, x1 = 0.2686	920.9 ± 3.8	1.4999 ± 0.005	0.909 ± 0.023
303.15 K, x1 = 0.3579	937.5 ± 3.8	1.5001 ± 0.005	1 ± 0.025
303.15 K, x1 = 0.4613	954 ± 4	1.5007 ± 0.005	1.085 ± 0.027
303.15 K, x1 = 0.56	972.3 ± 4	1.5009 ± 0.005	1.19 ± 0.029
303.15 K, x1 = 0.6668	988.1 ± 4.1	1.501 ± 0.005	1.312 ± 0.032
303.15 K, x1 = 0.7675	1001.3 ± 4.2	1.5011 ± 0.005	1.433 ± 0.035
303.15 K, x1 = 0.8768	1021.1 ± 4.3	1.5013 ± 0.005	1.566 ± 0.038
313.15 K, x1 = 0.0847	879.3 ± 3.9	1.4983 ± 0.005	0.676 ± 0.018
313.15 K, x1 = 0.1749	896.1 ± 4	1.4986 ± 0.005	0.732 ± 0.019
313.15 K, x1 = 0.2686	913.1 ± 4.1	1.4989 ± 0.005	0.8 ± 0.021
313.15 K, x1 = 0.3579	930.2 ± 4.2	1.4993 ± 0.005	0.864 ± 0.022
313.15 K, x1 = 0.4613	945.7 ± 4.3	1.4995 ± 0.005	0.937 ± 0.024
313.15 K, x1 = 0.56	963.8 ± 4.4	1.4997 ± 0.005	1.015 ± 0.026
313.15 K, x1 = 0.6668	980.8 ± 4.4	1.4999 ± 0.005	1.113 ± 0.028
313.15 K, x1 = 0.7675	992.7 ± 4.5	1.5001 ± 0.005	1.208 ± 0.03
313.15 K, x1 = 0.8768	1010.9 ± 4.6	1.5003 ± 0.005	1.31 ± 0.032

CCOC=O [ethyl methanoate] + Cc1ccccc1C
Details	mass density, [1] [kg/m3]	refractive index, [2]	viscosity, [1] [mPa·s]
303.15 K, x1 = 0.1467	872.7 ± 3.5	1.4906 ± 0.0099	0.63 ± 0.017
303.15 K, x1 = 0.2667	877.4 ± 3.6	1.4873 ± 0.0099	0.586 ± 0.016
303.15 K, x1 = 0.3779	880 ± 3.6	1.4786 ± 0.0099	0.544 ± 0.015
303.15 K, x1 = 0.4984	882.6 ± 3.6	1.4721 ± 0.0099	0.502 ± 0.014
303.15 K, x1 = 0.5936	886.9 ± 3.6	1.4631 ± 0.0099	0.471 ± 0.014
303.15 K, x1 = 0.694	891.2 ± 3.7	1.4347 ± 0.01	0.444 ± 0.013
303.15 K, x1 = 0.7791	896.7 ± 3.7	1.4072 ± 0.0099	0.42 ± 0.012
303.15 K, x1 = 0.8563	901.2 ± 3.7	1.3981 ± 0.0099	0.4 ± 0.012
303.15 K, x1 = 0.9337	903.7 ± 3.8	1.3729 ± 0.0099	0.378 ± 0.011
313.15 K, x1 = 0.1467	864.6 ± 3.9	1.4896 ± 0.0099	0.558 ± 0.015
313.15 K, x1 = 0.2667	868.5 ± 3.9	1.4819 ± 0.0099	0.521 ± 0.015
313.15 K, x1 = 0.3779	871.9 ± 3.9	1.4735 ± 0.0099	0.487 ± 0.014
313.15 K, x1 = 0.4984	873.7 ± 3.9	1.4671 ± 0.0099	0.452 ± 0.013
313.15 K, x1 = 0.5936	876.9 ± 3.9	1.4612 ± 0.01	0.43 ± 0.013
313.15 K, x1 = 0.694	881.6 ± 4	1.4216 ± 0.0099	0.402 ± 0.012
313.15 K, x1 = 0.7791	885.9 ± 4	1.4061 ± 0.0099	0.382 ± 0.012
313.15 K, x1 = 0.8563	889.6 ± 4	1.3969 ± 0.0099	0.366 ± 0.011
313.15 K, x1 = 0.9337	891.1 ± 4.1	1.3701 ± 0.0099	0.359 ± 0.011

CCOC=O [ethyl methanoate] + Cc1ccc(C)cc1
Details	mass density, [1] [kg/m3]	refractive index, [2]	viscosity, [1] [mPa·s]
303.15 K, x1 = 0.1658	857.7 ± 3.5	1.4785 ± 0.0099	0.523 ± 0.015
303.15 K, x1 = 0.2572	861.1 ± 3.5	1.4746 ± 0.0099	0.503 ± 0.014
303.15 K, x1 = 0.4068	868.2 ± 3.5	1.4671 ± 0.0099	0.472 ± 0.014
303.15 K, x1 = 0.5039	871.6 ± 3.6	1.4532 ± 0.0099	0.452 ± 0.013
303.15 K, x1 = 0.6037	878.8 ± 3.6	1.451 ± 0.0099	0.434 ± 0.013
303.15 K, x1 = 0.6916	883.4 ± 3.6	1.4239 ± 0.01	0.418 ± 0.012
303.15 K, x1 = 0.7854	889.6 ± 3.7	1.4121 ± 0.0099	0.403 ± 0.012
303.15 K, x1 = 0.8588	896 ± 3.7	1.3901 ± 0.0099	0.39 ± 0.012
303.15 K, x1 = 0.9381	902.9 ± 3.7	1.3711 ± 0.0099	0.375 ± 0.011
313.15 K, x1 = 0.1658	849 ± 3.8	1.4779 ± 0.0099	0.477 ± 0.014
313.15 K, x1 = 0.2572	851.7 ± 3.8	1.4732 ± 0.0099	0.451 ± 0.013
313.15 K, x1 = 0.4068	858.8 ± 3.9	1.4611 ± 0.0099	0.424 ± 0.012
313.15 K, x1 = 0.5039	861.8 ± 3.9	1.4499 ± 0.0099	0.407 ± 0.012
313.15 K, x1 = 0.6037	868.8 ± 3.9	1.4491 ± 0.01	0.393 ± 0.012
313.15 K, x1 = 0.6916	873.5 ± 3.9	1.4201 ± 0.0099	0.38 ± 0.011
313.15 K, x1 = 0.7854	877.8 ± 4	1.4091 ± 0.0099	0.371 ± 0.011
313.15 K, x1 = 0.8588	884.7 ± 4	1.3891 ± 0.0099	0.36 ± 0.011
313.15 K, x1 = 0.9381	891 ± 4	1.3689 ± 0.0099	0.348 ± 0.011

Cc1ccc(C)cc1 [1,4-dimethylbenzene]
Details	mass density, [3] [kg/m3]	refractive index, [4]	viscosity, [3] [mPa·s]
303.15 K	851.9 ± 1.8	1.4911 ± 0.0025	0.566 ± 0.016
313.15 K	844 ± 2	1.4902 ± 0.0025	0.517 ± 0.015
